Results as given in patent publication US7063946B2, “Methods, reagents, kits and apparatus for protein function analysis” (Meso Scale Technologies, LLC., priority 2001, dated 2006).

What was measured:
[1] = system: pEY; experiment: In vitro kinase library screen: activity towards pEY; type: biochemical; settings: 5 ul of expressed protein
Method: Proteins were produced in an in vitro transcription and translation reaction. […] The unbound components of the reaction containing endogenous kinases were removed by three washes with TT-buffer (25 mM Tris-HCl buffer pH 7.4 and 0.004% Triton), two five minutes washings with high-salt wash buffer (25 mM Tris-HCl buffer pH 7.4, 0.004% Triton, 1M NaCl and 5 mM DTT) and 3 more washes with TT-buffer. To these immobilized and purified proteins a tyrosine kinase substrate, 5 nM pEY (poly Glu-Tyr, Sigma, MO), was added in a 50 μl reaction solution containing 5 mM MgCl2, 5 mM MnCl2, 100 μM ATP, 25 mM Tris-HCl buffer pH 7.4, 0.05 mM Na3VO4, 0.004% TritonX-100, 2 mM DTT and EDTA-free protease inhibitor (Roche Molecular Biochemicals). This mixture was incubated with shaking at room temperature overnight to allow phosphorylation of the pEY substrate by the immobilized kinases. Following this incubation, 45 μl of this mixture was transferred to a streptavidin or avidin-coated NPT IPR plate coated with biotinylated anti-phosphotyrosine antibody (PY20, Zymed labs, CA) followed by incubation for 30 minutes at room temperature to allow the binding of the phosphorylated pEY substrate to the PY20 coated NPT plate. Following this binding step, 50 ng Sulfo-TAG labeled anti-phosphotyrosine in buffer containing 25 mM Tris-HCl buffer pH 7.4, 5 mM MgCl2, 0.05 mM Na3VO4, 0.004% TritonX-100, 2 mM DTT and 0.05% IgG was added followed by incubation at room temperature for 30 mm. The unbound reagents were removed by one time washing with water, and the TAG label was detected in presence of 150 μl IPR assay buffer (0.4 mM Gly-Gly buffer, pH 7.8, 1 mM EDTA, 0.1 M TPA). The ECL signals were measured using an imaging plate reader.
(§1) Proteins were produced in an in vitro transcription and translation reaction as described in the Materials and Methods. […] The reaction was stopped by mixing with BB2 buffer. Biotinylated proteins from 50 μl of the mixture (representing 0.5 μl to 5 μl of TnT reaction) were immobilized onto streptavidin or avidin coated NPT-IPR plates by shaking at room temperature for 45 min. The activity of the immobilized protein towards pEY or autophosphorylation was further assayed by the methods described in examples 7 and 8.

[2] = system: autophosphorylation (phosphotyrosine); experiment: In vitro kinase library screen: autophosphorylation; type: biochemical
Method: Proteins were produced from DNA plasmids of Mock Luciferase, Promega, tyrosine kinase clone Spleen Tyrosine kinase (SYK, IMAGE ID# 3870426) and Eph receptor-A7 (EphA7, IMAGE ID# 3991628) (Incyte Genomics, CA) and immobilized on streptavidin or avidin coated NPT-IPR plates as described in the Example 7. To promote autophosphorylation in these immobilized and purified proteins, Mn++ ions were added in a 50 μl reaction containing 5 mM MgCl2, 5 mM MnCl2, 100 μM ATP, 25 mM Tris-HCl buffer pH 7.4, 0.05 mM Na3VO4, 0.004% TritonX-100, 2 mM DTT and EDTA-free protease inhibitor (Roche Molecular Biochemicals). This mixture was incubated with shaking at room temperature overnight to allow autophosphorylation. Following this incubation, wells were washed 2 times with TT-buffer and 2 times with water. Following this step, 50 ng Sulfo-TAG labeled anti-phosphotyrosine in buffer containing 25 mM Tris-HCl buffer pH 7.4, 5 mM MgCl2, 0.05 mM Na3VO4, 0.004% TritonX-100, 2 mM DTT and 0.05% IgG in a final volume of 50 μl was added followed by incubation at room temperature for 45 min. The unbound reagents were removed by one time washing with water, and the TAG label was detected in presence of 150 μl IPR assay buffer (0.4 mM Gly—Gly buffer, pH 7.8, 1 mM EDTA, 0.1 M TPA). The ECL signals were measured using an imaging plate reader.
as §1

[3] = system: tyrosine kinases reported to be the target of each inhibitor; settings: read-out: reported IC50 concentration (1× concentration); for the kinase reported to be the target of the inhibitor; cited from earlier work
[4] = system: pooled phosphopeptide:BSA conjugates (Pools A-D); experiment: Coded multiplex phosphopeptide binding assay with pooled peptide:BSA conjugates on 4 spots
Description: To prepare the Multi-Spot IPR plates, in this example we made use of pools of the peptide:BSA conjugates to coat each of 4 spots per well in a 96 well plate. To achieve this we made the following pools; • Pool A; EGFR-pTyr1148, IkBa-24ppC, Myc-p58Tp62S. • Pool B; EGFR-pTyr992, EGFR-pTyr1148, Smad3C. • Pool C; EGFR-pTyr1068, IkBa-24ppC, Smad3C. • Pool D; EGFR-pTyr992, EGFR-pTyr1068, Myc-p58Tp62S.
This combination of the various peptides results in any single peptide being present in two pools. Each of these four pools is then spotted on to a unique spot in a 4 spot array. In this way any single binding protein with specificity for only one of the peptides would bind to two spots; the identity of the two spots would allow the identification of the peptide involved in the binding reaction.
Typically approximately 120 fmole of peptide:BSA conjugate in 0.25 μl was deposited on each spot of a 4-spot multi-array IPR plates using a BioDot Dispenser (Bio-Dot Inc., vIrvine Calif.). At this stage, the plates were dried then used or stored under desiccated condition. A few hours prior to usage, the plates were rehydrated and blocked with 3% BSA, in PBS.
To test the system the following EST clones IMAGE # 3491843, 4237375, 4398016, 4419252, 3872466, 3907115 were obtained. These clones express the following genes βTRCP1, βTRCP2, Grb2, PLCγ, CBP and Shc1, respectively. […] These DNAs were used to produce proteins as described in the Materials and Methods. Proteins were transferred to a well of the 4 spot peptide-coated and BSA blocked ECL plates. The binding assay (using Sulfo-TAG labeled streptavidin as a detection agent) was carried our according to the procedures described in Example 11.

Row | Molecule | HTS signal [1] | ECL signal [2] | further results
1 | 3601246: IMAGE clone protein: FRK, B-cell src-homology tyrosine kinase [compound 3601246] | 15,235 | 28,243 | 
2 | 4387232: IMAGE clone protein: CLK1, CDC-like kinase 1 [compound 4387232] | 5,109 | 423,938 | 
3 | CC(C)c1cc(/C=C(\C#N)C(=O)NCCCc2ccccc2)cc(C(C)C)c1O [SU-1498] |  |  | IC50 [3]: 700 nM
4 | COc1cc2ncnc(Nc3cccc(Cl)c3)c2cc1OC [AG-1478] |  |  | IC50 [3]: 3 nM
5 | CCOc1cc2ncnc(Nc3cccc(Br)c3)c2cc1OCC [Compound-56] |  |  | IC50 [3]: 0.006 nM
6 | 4037899: IMAGE clone protein: FGFR1, fibroblast growth factor receptor 1 [compound 4037899] | 450,413 | 240,550 | 
7 | 4363897: IMAGE clone protein: FGR, FYN oncogene related to SRC [compound 4363897] | 402,243 | 44,220 | 
8 | 4191610: IMAGE clone protein: LCK, lymphocyte protein tyrosine kinase [compound 4191610] | 3,110 | 24,183 | 
9 | 4515877: IMAGE clone protein: Frk, fyn-related kinase [compound 4515877] | 271,855 | 148,139 | 
10 | 3989782: IMAGE clone protein: Yes, Yamaguchi sarcoma viral (v-yes) oncogene homolog [compound 3989782] | 2,208 | 4,542 | 
11 | 4419973: IMAGE clone protein: FGR, Gardner-Rasheed feline sarcoma viral (v-fgr) oncogene homolog [compound 4419973] | 104,946 | 117,395 | 
12 | 3921724: IMAGE clone protein: FGR, FYN oncogene related to SRC [compound 3921724] | 93,081 | 241,697 | 
13 | 3995512: IMAGE clone protein: CLK2, CDC-like kinase 2 [compound 3995512] | 634 | 20,748 | 
14 | 4471986: IMAGE clone protein: ALK, anaplastic lymphoma kinase (Ki-1) [compound 4471986] | 905 | 4,069 | 
15 | 3896359: IMAGE clone protein: FGFR1, fibroblast growth factor receptor 1 (fms-related TK2) [compound 3896359] | 2,339 | 7,696 | 
16 | 3156953: IMAGE clone protein: Wee1, wee 1 homolog (S. pombe) [compound 3156953] | 981 | 27,452 | 
17 | 4419700: IMAGE clone protein: LCK, lymphocyte-specific protein tyrosine kinase [compound 4419700] | 898 | 7,230 | 
18 | 4181574: IMAGE clone protein: NTRK3, neurotrophic tyrosine kinase [compound 4181574] | 36,515 | 55,017 | 
19 | 4036253: IMAGE clone protein: CLK3, CDC-like kinase 3 [compound 4036253] | 704 | 42,712 | 
20 | 3982920: IMAGE clone protein: Clk4, CDC like kinase 4 [compound 3982920] | 2,244 | 192,787 | 
21 | 4343428: IMAGE clone protein: PTK2B, protein tyrosine kinase 2 beta [compound 4343428] | 57,486 | 274,742 | 
22 | 4419031: IMAGE clone protein: BLK, B lymphoid tyrosine kinase [compound 4419031] | 37,907 | 146,775 | 
23 | 4398016: IMAGE clone protein: Grb2 [compound 4398016] |  |  | Code (pattern of positive spots) [4]: C, D; Peptide determined from code [4]: EGFR-pTyr1068; ECL signal, spot A ([4]; Pool A, EGFR-pTyr1148, IkBa-24ppC, Myc-p58Tp62S): 36; ECL signal, spot B ([4]; Pool B, EGFR-pTyr992, EGFR-pTyr1148, Smad3C): 38; ECL signal, spot C ([4]; Pool C, EGFR-pTyr1068, IkBa-24ppC, Smad3C): 509; ECL signal, spot D ([4]; Pool D, EGFR-pTyr992, EGFR-pTyr1068, Myc-p58Tp62S): 386
24 | 3866791: IMAGE clone protein: JAK1, Janus kinase 1 [compound 3866791] | 729 |  | 
